The record followed here is US20140011799A1 (Bristol-Myers Squibb Company, priority 2012, published 2014).

Some results are limits rather than exact numbers.

What is called IC50 is the midpoint of a concentration-inhibition curve.

This test has as its target T1, Endothelial lipase (EL) (Homo sapiens, UniProt Q9Y5X9).
T1 construct: HT-1080 cells that were transformed using RAGE technology (Athersys) to overexpress endogenous EL; endogenous in cells; conditioned medium used
T1 sequence (Q9Y5X9 21-500): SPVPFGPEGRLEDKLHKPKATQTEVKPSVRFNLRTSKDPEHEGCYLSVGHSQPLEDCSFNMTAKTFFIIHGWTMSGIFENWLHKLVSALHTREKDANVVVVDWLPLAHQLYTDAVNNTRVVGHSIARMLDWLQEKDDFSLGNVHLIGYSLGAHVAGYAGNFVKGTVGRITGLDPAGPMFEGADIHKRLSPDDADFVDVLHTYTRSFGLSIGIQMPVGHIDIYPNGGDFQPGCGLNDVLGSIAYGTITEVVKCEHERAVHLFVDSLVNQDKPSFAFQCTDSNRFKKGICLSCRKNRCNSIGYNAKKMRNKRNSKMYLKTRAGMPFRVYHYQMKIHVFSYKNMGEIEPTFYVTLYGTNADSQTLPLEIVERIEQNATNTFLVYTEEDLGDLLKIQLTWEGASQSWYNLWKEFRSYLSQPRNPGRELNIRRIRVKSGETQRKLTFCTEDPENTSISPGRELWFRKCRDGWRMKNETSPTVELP
The test can be described thus: Endothelial lipase (EL) enzymatic assay, fluorescent substrate A10070 in DMPG vesicles. It is filed as biochemical. To be noted: EL from conditioned media of HT-1080 cells; compound preincubated 30 min at 37° C; read-out: EL IC50. The method, then: Endothelial lipase (EL) and hepatic lipase (HL) activities were measured using a fluorescent substrate, A10070, (Invitrogen, CA) doped into an artificial vesicle containing DMPG (Avanti Polar Lipids) as the excipient. Vesicles were prepared by combining 571 μL of 29 mM DMPG in a 1:1 mixture of MeOH and CHCl3 with 2000 μL of 1 mM A10070 in a 1:1 mixture of MeOH and CHCl3. The mixture was dried under nitrogen in multiple vials then resuspended in 20 mL total volume of 50 mM HEPES pH 8.0 buffer containing 50 mM NaCl and 0.2 mM EDTA. The sample was allowed to sit at room temperature for 15 min and then was sonicated 3×4 mins on ice with a Branson Sonicator using duty cycle 1. This preparation provides vesicles with a mole fraction of 0.11 for the FRET substrate.
The enzymatic assay was measured using 384-well white Optiplates. Each well contained 20 μL of assay buffer (50 mM HEPES pH 8.0, 50 mM NaCl and 1 mM CaCl2) and 0.25 μL of a DMSO solution containing a compound of interest. EL or HL (10 μL) was added and allowed to incubate with the compound for 30 min at 37° C. The source of EL was conditioned media obtained from HT-1080 cells that were transformed using RAGE technology (Athersys) to overexpress endogenous EL, and HL was partially purified from conditioned media obtained from COS cells overexpressing HL. The reaction was started by the addition of 10 μL of a 1:10 dilution of vesicles. The final total reaction volume was […]. The reaction rates were measured on a Gemini plate reader with an excitation wavelength of 490 nm and an emission wavelength of 530 nm. Readings were taken over a period of 60 minutes, and the slope between 300 and 900 secs of the readout was used to calculate the rate of the reaction.
Consider `CC1(Cc2nnc(C(c3nc4ccc(-c5ccccc5)cc4s3)S(C)(=O)=O)o2)NC(=O)N(CC(F)(F)F)C1=O` (single isomer, unassigned; isomer a) [Example 27, 5-methyl-5-((5-(methylsulfonyl(6-phenylbenzo[d]thiazol-2-yl)methyl)-1,3,4-oxadiazol-2-yl)methyl)-3-(2,2,2-trifluoroethyl)imidazolidine-2,4-dione (Isomer A)], for which the half-maximal inhibitory concentration (IC50) was less than 10 nM.

Regarding `CC1(Cc2nnc(C(c3nc4ccc(-c5ccc(F)nc5)cc4s3)S(=O)(=O)Cc3ccccc3)o2)SC(=O)NC1=O` (single isomer, unassigned; isomer b) [Example 4, 5-((5-((benzylsulfonyl)(6-(6-fluoropyridin-3-yl)benzo[d]thiazol-2-yl)methyl)-1,3,4-oxadiazol-2-yl)methyl)-5-methylthiazolidine-2,4-dione (Isomer B)], the IC50 was less than 10 nM.

As to `CC1(Cc2nnc(C(c3nc4ccc(-c5ccc(F)nc5)cc4s3)S(=O)(=O)Cc3ccccc3)o2)NC(=O)NC1=O` (single isomer, unassigned; isomer b) [Example 7, 5-((5-((benzylsulfonyl)(6-(6-fluoropyridin-3-yl)benzo[d]thiazol-2-yl)methyl)-1,3,4-oxadiazol-2-yl)methyl)-5-methylimidazolidine-2,4-dione (Isomer B)], the IC50 was 188 nM.

On to `CC1(Cc2nnc(C(c3nc4ccc(-c5ccnc(F)c5)cc4s3)S(=O)(=O)Cc3ccccc3)o2)NC(=O)NC1=O` (single isomer, unassigned; isomer b) [Example 10, 5-((5-((benzylsulfonyl)(6-(2-fluoropyridin-4-yl)benzo[d]thiazol-2-yl)methyl)-1,3,4-oxadiazol-2-yl)methyl)-5-methylimidazolidine-2,4-dione (Isomer B)], for which the IC50 is 19 nM.

In the case of `CC1(Cc2nnc(C(c3nc4ccc(-c5ccnc(F)c5)cc4s3)S(C)(=O)=O)o2)NC(=O)NC1=O` (single isomer, unassigned; isomer b) [Example 12, 5-((5-((6-(2-fluoropyridin-4-yl)benzo[d]thiazol-2-yl)(methylsulfonyl)methyl)-1,3,4-oxadiazol-2-yl)methyl)-5-methylimidazolidine-2,4-dione (Isomer B)], the IC50 came to 54 nM.

Turning to `CC1(Cc2nnc(C(c3nc4ccc(-c5ccc(C(=O)N6CCOCC6)cc5)cc4s3)S(C)(=O)=O)o2)NC(=O)NC1=O` (single isomer, unassigned; isomer b) [Example 15, 5-methyl-5-((5-((methylsulfonyl)(6-(4-(morpholine-4-carbonyl)phenyl)benzo[d]thiazol-2-yl)methyl)-1,3,4-oxadiazol-2-yl)methyl)imidazolidine-2,4-dione (Isomer B)], the IC50 was determined as 65 nM.

Consider `CC1(Cc2nnc(C(c3nc4ccc(-c5ccc(F)nc5)cc4s3)S(C)(=O)=O)o2)SC(=O)NC1=O` (single isomer, unassigned; isomer b) [Example 18, 5-((5-((6-(6-fluoropyridin-3-yl)benzo[d]thiazol-2-yl)(methylsulfonyl)methyl)-1,3,4-oxadiazol-2-yl)methyl)-5-methylthiazolidine-2,4-dione (Isomer B)], for which the IC50 was less than 10 nM.

On to `CC1(Cc2nnc(C(c3nc4ccc(-c5ccc(F)nc5)cc4s3)S(C)(=O)=O)o2)NC(=O)NC1=O` (single isomer, unassigned; isomer b) [Example 22, 5-((5-((6-(6-fluoropyridin-3-yl)benzo[d]thiazol-2-yl)(methylsulfonyl)methyl)-1,3,4-oxadiazol-2-yl)methyl)-5-methylimidazolidine-2,4-dione (Isomer B)], for which the IC50 came out at 27 nM.

In the case of `CC1(Cc2nnc(Cc3nc4ccc(-c5ccccc5)cc4s3)o2)NC(=O)N(CC(F)(F)F)C1=O` (single isomer, unassigned; isomer b) [Example 26, 5-Methyl-5-((5-((6-phenylbenzo[d]thiazol-2-yl)methyl)-1,3,4-oxadiazol-2-yl)methyl)-3-(2,2,2-trifluoroethyl)imidazolidine-2,4-dione (Isomer B)], the IC50 is less than 10 nM.

As to `CS(=O)(=O)C(c1nnc(CC2SC(=O)NC2=O)o1)c1nc2ccc(-c3ccc(C(=O)N4CCOCC4)cc3)cc2s1` (centres unmarked) [Example 2, 5-((5-((methylsulfonyl)(6-(4-(4-morpholinylcarbonyl)phenyl)-1,3-benzothiazol-2-yl)methyl)-1,3,4-oxadiazol-2-yl)methyl)-1,3-thiazolidine-2,4-dione], the IC50 is less than 10 nM.

Turning to `CS(=O)(=O)C(c1nnc(CC2SC(=O)NC2=O)o1)c1nc2ccc(-c3ccc(F)nc3)cc2s1` (centres unmarked) [Example 3, 5-((5-((6-(6-fluoro-3-pyridinyl)-1,3-benzothiazol-2-yl)(methylsulfonyl)methyl)-1,3,4-oxadiazol-2-yl)methyl)-1,3-thiazolidine-2,4-dione], the IC50 is less than 10 nM.

With `CC1(Cc2nnc(C(c3nc4ccc(-c5ccc(C(=O)N6CCOCC6)cc5)cc4s3)S(=O)(=O)Cc3ccccc3)o2)NC(=O)NC1=O` (centres unmarked) [Example 5, 5-((5-((benzylsulfonyl)(6-(4-(morpholine-4-carbonyl)phenyl)benzo[d]thiazol-2-yl)methyl)-1,3,4-oxadiazol-2-yl)methyl)-5-methylimidazolidine-2,4-dione], the IC50 amounted to 30 nM.

As for `CC1(Cc2nnc(C(c3nc4ccc(-c5ccc(C(=O)N6CCOCC6)cc5)cc4s3)S(=O)(=O)Cc3ccccc3)o2)NC(=O)NC1=O` (centres unmarked) [Example 8, 5-((5-((benzylsulfonyl)(6-(4-(morpholine-4-carbonyl)phenyl)benzo[d]thiazol-2-yl)methyl)-1,3,4-oxadiazol-2-yl)methyl)-5-methylimidazolidine-2,4-dione], the IC50 amounted to 62 nM.

Regarding `O=S(=O)(O)Cc1nnc(C(c2nc3ccc(-c4ccc(OCc5ccccc5)cc4)cc3s2)S(=O)(=O)CCC(F)(F)F)o1` (centres unmarked) [Example 11, (5-((6-(4-(benzyloxy)phenyl)benzo[d]thiazol-2-yl)((3,3,3-trifluoropropyl)sulfonyl)methyl)-1,3,4-oxadiazol-2-yl)methanesulfonic acid], the IC50 was more than 10 nM.

Consider `CS(=O)(=O)C(c1nnc(CC2NC(=O)NC2=O)o1)c1nc2ccc(-c3ccc(C(=O)N4CCOCC4)cc3)cc2s1` (centres unmarked) [Example 16, 5-((5-((methylsulfonyl)(6-(4-(morpholine-4-carbonyl)phenyl)benzo[d]thiazol-2-yl)methyl)-1,3,4-oxadiazol-2-yl)methyl)imidazolidine-2,4-dione], for which the IC50 turned out to be 46 nM.

As for `Cc1noc(C)c1-c1ccc2nc(C(c3nnc(CC4SC(=O)NC4=O)o3)S(C)(=O)=O)sc2c1` (centres unmarked) [Example 19, 5-((5-((6-(3,5-dimethylisoxazol-4-yl)benzo[d]thiazol-2-yl)(methylsulfonyl)methyl)-1,3,4-oxadiazol-2-yl)methyl) thiazolidine-2,4-dione], the IC50 is less than 10 nM.

In the case of `Cc1nn(C)cc1-c1ccc2nc(C(c3nnc(CC4SC(=O)NC4=O)o3)S(C)(=O)=O)sc2c1` (centres unmarked) [Example 20, 5-((5-((6-(1,3-dimethyl-1H-pyrazol-4-yl)benzo[d]thiazol-2-yl)(methylsulfonyl)methyl)-1,3,4-oxadiazol-2-yl)methyl) thiazolidine-2,4-dione], the IC50 is less than 10 nM.

For `Cn1cc(-c2ccc3nc(C(c4nnc(CC5SC(=O)NC5=O)o4)S(C)(=O)=O)sc3c2)cn1` (centres unmarked) [Example 24, 5-((5-((6-(1-methyl-1H-pyrazol-4-yl)benzo[d]thiazol-2-yl)(methylsulfonyl)methyl)-1,3,4-oxadiazol-2-yl)methyl) thiazolidine-2,4-dione], the IC50 was less than 10 nM.

As for `Cc1nccn1-c1nc(-c2ccc3nc(C(c4nnc(CC5SC(=O)NC5=O)o4)S(C)(=O)=O)sc3c2)cs1` (centres unmarked) [Example 25, 5-((5-((6-(2-(2-methyl-1H-imidazol-1-yl)thiazol-4-yl)benzo[d]thiazol-2-yl)(methylsulfonyl)methyl)-1,3,4-oxadiazol-2-yl)methyl) thiazolidine-2,4-dione], the IC50 is less than 10 nM.

Take `CS(=O)(=O)C(c1nnc(CS(=O)(=O)O)o1)c1nc2ccc(-c3ccccc3)cc2s1` (centres unmarked) [Example 28, (5-((methylsulfonyl) (6-phenyl-1,3-benzothiazol-2-yl)methyl)-1,3,4-oxadiazol-2-yl) methanesulfonic acid]: the IC50 was less than 10 nM.
